Results published in patent publication US9629822B2, “Flavonoid based antiviral targets” (UNIVERSITY OF CENTRAL FLORIDA RESEARCH FOUNDATION, INC., priority 2012, dated 2017).
Like-named read-outs stand apart in the source and are kept apart here.

Tests used:
US28 receptor = target: T1, US28 receptor (Human cytomegalovirus, UniProt P69332); test: PathDetect trans Elk1 luciferase reporter gene assay in US28-transfected 293T HEK cells; type: cell-based, Human Cytomegalovirus (HCMV); details: for EC50: 293T HEK cells transiently expressing US28, Elk1 reporter; for Efficacy(%): maximum intrinsic activity from dose-response curve; for Efficacy(%) / Emax: negative = inverse agonism; for Emax: read-out: Efficacy(%), maximum intrinsic activity from dose-response curve; for type of activity on the US28 receptor (agonist / inverse agonist / none), in words: Elk1 reporter, US28-transfected HEK cells
T1 construct: expressed in transfected cells; host or cells: HEK 293T cells, transiently transfected
Excerpt: Having generated a homologous series of chalcones and flavones, their ability to interact with the US28 receptor in human embryonic kidney (HEK) cells was investigated using an Elk-1 gene reporter assay (FIG. 2). HEK cells were transfected with either an empty vector (i.e., mock cells) or with a vector carrying US 28. These matched HEK cells provided a means to evaluate off-target effects as well as innate drug toxicity. As many of the flavonoid drugs were not water-soluble, all drug stock solutions were made in 100% dimethylsulfoxide (DMSO). The final DMSO concentration for each cell-based experiment, however, was 1% DMSO. To account for the presence of DMSO, 1% DMSO controls were run in parallel. […] values of the homologous series were also determined in Chinese hamster ovary (CHO) cells in order to assess the relative toxicities of each member of the series in a different cell line (see Table 1).
Interaction with the US28 receptor was measured by a decrease in luminescence using a firefly (Photinus pyralis) luciferase-based PathDetect Elk1 gene reporter assay (FIG. 2).^23,24 This assay assessed the modulation of US28-mediated activation of mitogen-activated protein kinase (MAPK) signaling pathways (results are shown in Table 1). […] Such compounds which reduce MAPK signaling will have direct utility in the treatment of proliferative disorders including but not limited cancer.
After transfection the US28 is expressed and activates MAPK. The MAPK phosphorylates the activator domain of the GAL4dbd/Elk1 fusion protein, and causes its dimerization. The dimer then binds to the GAL4 UAS region of the reporter gene and allows for luciferase transcription. The luciferase mRNA is then translated and the luciferase protein is detected via luminescence by the use of the Bright-Glo reagent.
(§1) The efficacy of each compound on the US28 receptor was investigated in luciferase based reporter gene assay PathDetect trans Elk1 (Agilent, Stratagene)^23 as described previously.^13 Briefly, the human embryonic kidney (HEK) 293T cells were transiently-transfected with 0.1 μg Elk1, 5 μg Luc, and 5 μg of US28 vector or empty pcDNA3 vector (mock cells). Five hours after transfection, the cells were washed with DMEM containing 1% FBS, harvested, seeded in a white half-area 96-well plate (20,000 cells/well) and incubated with the indicated concentrations of test compounds. The incubation buffer consisted of DMEM, 1% FBS, 2 mM L-glutamine, 1% penicillin-streptomycin and 1% DMSO. The cells were incubated at 37° C. in the humid atmosphere with 5% CO2 for an additional 20-24 hours. The luciferase substrate BrightGlo (Promega) was used according to the manufacturer's instruction. The luminescence intensity was acquired using microplate reader Victor3V (Perkin-Elmer). The basal luminescence of mock transfected cells was approximately 500 RLU and the basal luminescence of US28-transfected cells was 4-5-fold higher (2000-2500 RLU). As the inhibitors gave differential responses in terms of their ability to reduce US 28 mediated signaling, their relative EC50 values were determined by dosing the US-28 transfected HEK cells with increasing concentrations of each compound. In this case, the EC50 value is the concentration of the compound needed to provoke a response halfway between the compound's maximal response (change in luminescence) and the no-compound control in the same US-28 transfected cell line. A plot of relative luminescence versus log of the compound concentration provided a dose-response curve from which the % efficacy was derived via non-linear regression methods using the algorithms in PRISM 5.0 (GraphPad Software, San Diego, Calif.).

CHO cells = test: CHO cell toxicity, MTS assay, 48 h; type: cell-based, Chinese hamster; details: Cricetulus griseus, CHO, 37° C., MTS reagent, read-out: CHO 48 h IC50 value
Experimental: In each case, the chalcone system 8 was more toxic than the corresponding ring-closed system, 9.
The CHO assay was conducted to assess the general toxicity of each flavonoid drug. Briefly, cell growth was assayed in sterile 96-well microtiter plates (Costar 3599, Corning, N.Y., USA) in the presence of each drug. Experiments were conducted in triplicate. CHO cells were plated at 10,000 cells/mL. Drug solutions were prepared in 100% DMSO and dosed so that the final DMSO concentration was <1%. For example, 1 μL of drug solution was added to the CHO cells plated in each well in 100 μL of media. Drug additions occurred after an initial overnight incubation of CHO cells in each well. After drug was added, the cells were incubated in 5% CO2 for 48 h at 37° C. The MTS reagent (Promega Cell Titer 96 Aqueous non-radioactive cell proliferation reagent) was added (20 μL) and the CHO cells were incubated for an additional 4h and then absorbance at 490 nm was measured on a BioTek Synergy MX plate reader. […] IC50 values were determined from the corresponding plot of relative absorbance at 490 nm vs drug concentration.

[1] = TZMbI assay for cell safety (cell viability and growth, CytoTox Glo); details: human, TZMbI cells, read-out: % decrease in viability compared to 0.1% DMSO vehicle based on viable cell luminescence
Experimental: Assays were performed below in accordance with the procedures set forth in The Journal of Immunology, 2006, 176, pp. 6900-905; AIDS Research and Human Retroviruses, 2004, 20:11, pp. 1157-1665.^32,33 TZMbI assays for cell safety were performed to identify potential anti-viral compounds. TZMbI assays for cell safety were performed to identify potential anti-viral compounds per the methods.

HIV-1 BaL = test: Anti-HIV assay (luciferase, HIV-1 BaL infection); type: cell-based
Experimental: Assays were performed below in accordance with the procedures set forth in The Journal of Immunology, 2006, 176, pp. 6900-905; AIDS Research and Human Retroviruses, 2004, 20:11, pp. 1157-1665.^32,33 Cells were treated with 2 ng/mL p24 of HIV-1 BaL administered; MOI approx 0.02 (see refs 32, 33). Cells were treated with 2 ng/mL p24 of HIV-1 BaL administered; MOI approx 0.02 (see refs 32, 33).

[2] = tested on: mock transfected 293T HEK cells; test: PathDetect Elk1 luminescence in mock transfected (empty pcDNA3 vector) 293T HEK cells, off-target effect; type: cell-based, human; details: 10 μM vs 1% DMSO control, Equation 1; for activation at 10 µM: Homo sapiens, read-out: Effect(%) on mock cells with each drug at 10 μM
Experimental: As a control, the empty pcDNA3 plasmid vector and the components of PathDetect system were also used for mock transfection of 293T HEK cells. Controls containing 1% DMSO were run in parallel. The relative luminescence results found with mock transfected 293T HEK cells treated with 10 μM drug and the untreated 1% DMSO control were compared via the following Equation 1. % Effect on mock cells=(100%×(mock cell luminescence/DMSO control luminescence))−100% Equation (1)
This equation was derived in order to assess the net effect each compound had on non-US28 containing HEK cells transfected via the same protocol. These control experiments were critical as they provided a method to address off target effects such as compound toxicity, which could give rise to false positives in the PathDetect assay.
Compounds, which had no off-target effects, gave nearly identical luminescence values in both the mock cells and the 1% DMSO control (i.e., a mock cell luminescence/DMSO control luminescence ratio of 1) and a net effect of 0% via Equation 1 (e.g., 9j: 0% in Table 1). In contrast, compounds that were stimulatory to the treated HEK cells gave higher mock cell luminescence than the DMSO control, a ratio >1, and a net positive value in Equation 1 for the % effect on mock cells (e.g., 8f: 290%). On the other hand, compounds that were intrinsically toxic gave lower luminescence in the treated mock cells than the DMSO control, a ratio below 1, and a net negative value for the % effect on mock cells (e.g., 8d: ˜42%).
as §1

[3] = EC50 (μM), NE = no effect when tested at 10 μM of compound
[4] = 10 μM, Experiment 1B, 2 ng/mL p24 HIV-1 BaL
[5] = Human immunodeficiency virus 1, BAL, 10 μM, Experiment 1B, 2 ng/mL p24 HIV-1 BaL
[6] = NE = no effect when tested at 10 μM of compound

T1 sequence (P69332 whole entry): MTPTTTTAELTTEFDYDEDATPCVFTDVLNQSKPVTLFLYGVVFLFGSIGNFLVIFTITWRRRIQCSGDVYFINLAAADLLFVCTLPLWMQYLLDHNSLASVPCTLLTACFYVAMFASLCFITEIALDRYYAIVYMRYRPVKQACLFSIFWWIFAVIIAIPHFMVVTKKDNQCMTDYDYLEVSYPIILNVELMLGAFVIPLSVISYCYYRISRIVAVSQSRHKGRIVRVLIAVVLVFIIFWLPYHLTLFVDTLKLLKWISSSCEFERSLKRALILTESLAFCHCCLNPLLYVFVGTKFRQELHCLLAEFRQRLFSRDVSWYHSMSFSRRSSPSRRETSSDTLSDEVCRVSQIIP

In the case of `COc1cc(Br)cc(/C=C/C(=O)c2ccccc2O)c1OC` [Compound 8d, (E)-3-(5-bromo-2,3-dimethoxyphenyl)-1-(2-hydroxyphenyl)prop-2-en-1-one], the EC50 (US28 receptor; [3]) is reported as 6.7 µM, the “Efficacy(%)” value (US28 receptor) is reported as about 52% and the EC50 (US28 receptor; pEC50 ± SEM) is reported as 6.61 µM. It also gave an Emax (US28 receptor) of about 52%, an IC50 (CHO cells) of 7.2 ± 0.4 µM and a cytotoxicity at 10 μM ([1]; Experiment 1A) of 72.9%. For the same compound, the “RLU (relative luciferase units)” value (HIV-1 BaL; [4]) was 134.6 RLU, the inhibition at 10 µM (HIV-1 BaL; [5]) was 85.8% and the melting point was 122 to 124 °C.
With `COc1ccc(Br)cc1/C=C/C(=O)c1c(O)cccc1OC` [Compound 8f, (E)-3-(5-bromo-2-methoxyphenyl)-1-(2-hydroxy-6-methoxyphenyl)prop-2-en-1-one] the EC50 (US28 receptor; [3]) was 6 µM, the “Efficacy(%)” value (US28 receptor) was about 95% and the Emax (US28 receptor) was about 95%. For the same compound, the “Effect(%) on mock cells with each drug at 10 μM” value [2] was 290%, the activation at 10 µM [2] was 290% and the IC50 (CHO cells) was 6.1 ± 0.8 µM. The cytotoxicity at 10 μM ([1]; Experiment 1A) was 91.3%, the “RLU (relative luciferase units)” value (HIV-1 BaL; [4]) was 45.9 RLU and the inhibition at 10 µM (HIV-1 BaL; [5]) was 95.1%.
In the case of `COc1ccc(Cl)cc1/C=C/C(=O)c1ccccc1O` [Compound 8h, (E)-3-(5-chloro-2-methoxyphenyl)-1-(2-hydroxyphenyl)prop-2-en-1-one], the EC50 (US28 receptor; [3]) is reported as 7.8 µM, the “Efficacy(%)” value (US28 receptor) is reported as about 58% and the Emax (US28 receptor) is reported as about 58%. The IC50 (CHO cells) was 8.4 ± 0.6 µM, the cytotoxicity at 10 μM ([1]; Experiment 1A) was 98.9% and the “RLU (relative luciferase units)” value (HIV-1 BaL; [4]) was 33.8 RLU. For the same compound, the inhibition at 10 µM (HIV-1 BaL; [5]) was 96.4% and the melting point was 81 to 82 °C.
With `CCOc1ccc(Br)cc1-c1oc2ccccc2c(=O)c1O` [Compound 9c, 2-(5-Bromo-2-ethoxyphenyl)-3-hydroxy-4H-chromen-4-one] the EC50 (US28 receptor; [3]) was 0.8 µM, the “type of activity on the US28 receptor (agonist / inverse agonist / none), in words” value (US28 receptor) was “inhibited US28 activity” and the EC50 (US28 receptor; pEC50 ± SEM) was 0.832 µM. For the same compound, the IC50 (CHO cells) was 13.5 ± 1.3 µM, the cytotoxicity at 2.5 μM ([1]; 2.5 μM, Experiment 2A) was -6.23% and the cytotoxicity at 5 μM ([1]; 5 μM, Experiment 2A) was -0.19%. For the same compound, the cytotoxicity at 10 μM ([1]; Experiment 1A) was -8.9%, the cytotoxicity at 10 μM ([1]; Experiment 2A) was 0.1% and the cytotoxicity at 20 μM ([1]; 20 μM, Experiment 2A) was 14.8%. The cytotoxicity at 40 μM ([1]; 40 μM, Experiment 2A) was 64.2%, the “RLU (relative luciferase units)” value (HIV-1 BaL; 2.5 μM, Experiment 2B) was 30.81 RLU and the “RLU (relative luciferase units)” value (HIV-1 BaL; 5 μM, Experiment 2B) was 33.63 RLU. The “RLU (relative luciferase units)” value (HIV-1 BaL; [4]) was 727.6 RLU, the “RLU (relative luciferase units)” value (HIV-1 BaL; 10 μM, Experiment 2B) was 49.29 RLU and the “RLU (relative luciferase units)” value (HIV-1 BaL; 20 μM, Experiment 2B) was 69.09 RLU. The “RLU (relative luciferase units)” value (HIV-1 BaL; 40 μM, Experiment 2B) was 88.45 RLU, the inhibition at 2.5 µM (HIV-1 BaL; Human immunodeficiency virus 1, BAL, 2.5 μM, Experiment 2B) was -6.23% and the inhibition at 5 µM (HIV-1 BaL; Human immunodeficiency virus 1, BAL, 5 μM, Experiment 2B) was -0.19%. The inhibition at 10 µM (HIV-1 BaL; [5]) was 22.3%, the inhibition at 10 µM (HIV-1 BaL; Human immunodeficiency virus 1, BAL, 10 μM, Experiment 2B) was 0.1% and the inhibition at 20 µM (HIV-1 BaL; Human immunodeficiency virus 1, BAL, 20 μM, Experiment 2B) was 14.8%. The inhibition at 40 µM (HIV-1 BaL; Human immunodeficiency virus 1, BAL, 40 μM, Experiment 2B) was 64.2% and the melting point was 149 to 155 °C.
With `COc1ccccc1-c1cc(=O)c2ccccc2o1` [Compound 11c, 2-(2-Methoxyphenyl)-4H-chromen-4-one] the EC50 (US28 receptor; [6]) was over 10 µM, the EC50 (US28 receptor; [3]) was over 10 µM and the “type of activity on the US28 receptor (agonist / inverse agonist / none), in words” value (US28 receptor) was “inactive ligand”. For the same compound, the activation at 10 µM [2] was 3%, the IC50 (CHO cells) was 64.8 ± 8.1 µM and the cytotoxicity at 10 μM ([1]; Experiment 1A) was 39.5%. For the same compound, the “RLU (relative luciferase units)” value (HIV-1 BaL; [4]) was 235.6 RLU and the inhibition at 10 µM (HIV-1 BaL; [5]) was 74.8%.
With `COc1ccc(Br)cc1C1CC(=O)c2ccccc2O1` (centres unmarked) [Compound 13b, 2-(5-Bromo-2-methoxyphenyl)chroman-4-one] the EC50 (US28 receptor; [6]) was over 10 µM, the EC50 (US28 receptor; [3]) was over 10 µM and the “type of activity on the US28 receptor (agonist / inverse agonist / none), in words” value (US28 receptor) was “did not have any significant effect”. For the same compound, the activation at 10 µM [2] was -5%, the IC50 (CHO cells) was 67.9 ± 9.3 µM and the cytotoxicity at 10 μM ([1]; Experiment 1A) was -9.1%. The “RLU (relative luciferase units)” value (HIV-1 BaL; [4]) was 884.5 RLU and the inhibition at 10 µM (HIV-1 BaL; [5]) was 2.8%.
